Molecules are shown by their SMILES. pEC50: −log10 of the molar value. Where “and” joins values, the source holds several entries; their conditions need not be identical. Equal entries are not always repeated.

Data on 32 compounds can be found in patent US9896441B2 (Lycera Corporation, priority 2014, dated 2018).

The target of one test is T1, RORγ-LBD (Homo sapiens, UniProt P51449).
T1 construct: made in house; host or cells: SF9 cells (baculovirus); used as diluted lysate
T1 sequence (P51449 269-508 limits assumed): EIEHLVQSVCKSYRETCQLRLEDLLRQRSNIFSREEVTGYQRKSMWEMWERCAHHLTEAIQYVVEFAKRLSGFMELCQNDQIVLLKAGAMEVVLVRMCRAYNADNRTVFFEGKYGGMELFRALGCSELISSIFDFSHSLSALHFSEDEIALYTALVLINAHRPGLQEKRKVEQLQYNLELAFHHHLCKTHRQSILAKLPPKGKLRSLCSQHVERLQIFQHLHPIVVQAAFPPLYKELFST
Description: RORγ-Ligand Binding Domain (LBD) TR-FRET Assay.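 As to TR-FRET Assay Max Response: 665/615 nm signal ratio set to 100 without ursolic acid or test compound.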 Format: biochemical. The note with it: RORγ-LBD TR-FRET. The method, then:
Assay procedures and results are described below.
HIS-tagged RORγ-LBD protein was expressed in SF9 cells using a baculovirus expression system. The lysate was diluted in assay buffer (50 mM Tris pH 7.0, 50 mM KCl, 1 mM EDTA, 0.1 mM DTT, 0.01% BSA) to obtain RORγ-LBD final concentration of ˜3 nM in a 384-well assay plate (need to titrate for each batch of protein).
A stock of biotinylated-LXXLL peptide from coactivator SRC1 (Biotin-[…]) was prepared in assay buffer and added to each well (200 nM final concentration). […] RORγ antagonist ursolic acid was also included at a final concentration of 2 μM. Compounds were diluted in DMSO and further diluted in assay buffer with a final DMSO concentration at 1%.
Consider `O=C(O)CC[C@H]1CN(S(=O)(=O)c2cccc(C(F)(F)F)c2)c2cc(/C=C/c3c(Cl)cc(OC(F)(F)F)cc3Cl)ccc2O1` [Example 89CN, (S,E)-3-(6-(2,6-dichloro-4-(trifluoromethoxy)styryl)-4-((3-(trifluoromethyl)phenyl)sulfonyl)-3,4-dihydro-2H-benzo[b][1,4]-oxazin-2-yl)propanoic acid], for which the negative logarithm of the EC50 (pEC50) is 5.30 to 6.30.
Regarding `O=S(=O)(c1cccc(C(F)(F)F)c1)N1CCCc2cc(OCC3CCCCC3)ccc21` [Example 25M, 6-(cyclohexylmethoxy)-1-((3-(trifluoromethyl)phenyl)sulfonyl)-1,2,3,4-tetrahydroquinoline], the negative-log EC50 (pEC50) was above 6.30.
The same measure, in the same setting: the figure for `O=S(=O)(c1cccc(C(F)(F)F)c1)N1CCCc2cc(C3CC3)c(OCc3c(F)cccc3C3CC3)cc21` [Example 28C] is above 6.30; for `CCOC(=O)C1Cc2ccc(OCc3c(F)cccc3Cl)cc2N(S(=O)(=O)c2cn(CC)nc2Cl)C1` (stereo not drawn) [Example 9E, ethyl 1-((3-chloro-1-ethyl-1H-pyrazol-4-yl)sulfonyl)-7-((2-chloro-6-fluorobenzyl)oxy)-1,2,3,4-tetrahydroquinoline-3-carboxylate] it is above 6.30.
Still for that read-out and setting: the value for `O=C(O)CC[C@H]1CN(S(=O)(=O)c2cccc(C(F)(F)F)c2)c2cc(/C=C/c3c(Cl)cc(Cl)cc3Cl)ccc2O1` [Example 89CL, (S,E)-3-(6-(2,4,6-trichlorostyryl)-4-((3-(trifluoromethyl)-phenyl)sulfonyl)-3,4-dihydro-2H-benzo[b][1,4]oxazin-2-yl)propanoic acid] was 5.30 to 6.30.
Still for that read-out and setting: the figure for `COc1cc(S(=O)(=O)N2CCCc3ccc(O[C@@H]4c5ccccc5C[C@@H]4C)cc32)ccc1F` (relative stereo) [Example 25D, 1-((4-fluoro-3-methoxyphenyl)sulfonyl)-7-(((cis)-2-methyl-2,3-dihydro-1H-inden-1-yl)oxy)-1,2,3,4-tetrahydroquinoline] is above 6.30.
As for `Cn1ccnc1/C=C/c1ccc2c(c1)N(S(=O)(=O)c1cccc(C(F)(F)F)c1)C[C@H](CCC(=O)O)O2` [Example 89BU, (S,E)-3-(6-(2-(1-methyl-1H-imidazol-2-yl)vinyl)-4-((3-(trifluoromethyl)phenyl)sulfonyl)-3,4-dihydro-2H-benzo[b][1,4]-oxazin-2-yl)propanoic acid], the pEC50 is 5.00 to 5.30.
In the case of `O=S(=O)(c1cccc(C(F)(F)F)c1)N1CCCc2cc(Br)c(OCc3c(F)cccc3Cl)cc21` [Example 28F], the negative-log EC50 (pEC50) is above 6.30.
In turn, `CCCn1ccc(/C=C/c2ccc3c(c2)N(S(=O)(=O)c2cccc(C(F)(F)F)c2)C[C@H](CCC(=O)O)O3)n1` [Example 89BZ, (S,E)-3-(6-(2-(1-propyl-1H-pyrazol-3-yl)vinyl)-4-((3-(trifluoromethyl)phenyl)sulfonyl)-3,4-dihydro-2H-benzo[b][1,4]oxazin-2-yl)propanoic acid] showed a pEC50 below 5.00.
Same read-out and setting: the figure for `O=C(O)CC[C@H]1CN(S(=O)(=O)c2cccc(C(F)(F)F)c2)c2cc(/C=C/c3cccc4cn[nH]c34)ccc2O1` [Example 89BL, (S,E)-3-(6-(2-(1H-indazol-7-yl)vinyl)-4-((3-(trifluoromethyl)phenyl)sulfonyl)-3,4-dihydro-2H-benzo[b][1,4]oxazin-2-yl)propanoic acid] is below 5.00; for `CS(=O)(=O)c1cccc(/C=C/c2ccc3c(c2)N(S(=O)(=O)c2cccc(C(F)(F)F)c2)C[C@H](CCC(=O)O)O3)c1` [Example 89BV, (S,E)-3-(6-(3-(methylsulfonyl)-styryl)-4((3-(trifluoromethyl)-phenyl)sulfonyl)-3,4-dihydro-2H-benzo[b][1,4]oxazin-2-yl)propanoic acid] it is below 5.00; for `COC(=O)CC[C@H]1CN(S(=O)(=O)c2cccc(C(F)(F)F)c2)c2cc(/C=C/c3cccn4ccnc34)ccc2O1` [Example 89DE, methyl (S,E)-3-(6-(2-(imidazo[1,2-a]pyridin-8-yl)vinyl)-4-((3-(trifluoromethyl)-phenyl)sulfonyl)-3,4-dihydro-2H-benzo[b][1,4]oxazin-2-yl)propanoate] it is > 6.30 and 5.30 to 6.30.
Regarding `O=S(=O)(c1cccc(C(F)(F)F)c1)N1CCCc2cc(O[C@H]3CCc4ccccc43)ccc21` [Example 25V, (S)-6-((2,3-dihydro-1H-inden-1-yl)oxy)-1-((3-(trifluoromethyl)-phenyl)sulfonyl)-1,2,3,4-tetrahydroquinoline], the pEC50 was 5.30 to 6.30.
For `O=S(=O)(c1cccc(C(F)(F)F)c1)N1CCCc2cc(Cl)c(OCc3c(F)cccc3Cl)cc21` [Example 28A], the negative-log EC50 (pEC50) was above 6.30.
Still for that read-out and setting: the value for `O=S(=O)(c1cccc(C(F)(F)F)c1)N1CCCc2cc(C3CC3)c(OCc3c(F)cccc3Cl)cc21` [Example 28B] was above 6.30; that for `CC(=O)c1cccc(/C=C/c2ccc3c(c2)N(S(=O)(=O)c2cccc(C(F)(F)F)c2)C[C@H](CCC(=O)O)O3)n1` [Example 89BX, (S,E)-3-(6-(2-(6-acetylpyridin-2-yl)vinyl)-4-((3-(trifluoromethyl)-phenyl)sulfonyl)-3,4-dihydro-2H-benzo[b][1,4]oxazin-2-yl)propanoic acid] was below 5.00.

The test is the same for the next values; noted with them: RORγ-LBD TR-FRET assay.
In the case of `COC(=O)N[C@@H]1Cc2ccc(/C=C(\C)c3c(F)cccc3Cl)cc2N(S(=O)(=O)c2cccc(C(F)(F)F)c2)[C@@H]1C` [Example 143, Methyl ((2R,3R)-7-((E)-2-(2-chloro-6-fluorophenyl)prop-1-en-1-yl)-2-methyl-1-((3-(trifluoromethyl)phenyl)sulfonyl)-1,2,3,4-tetrahydroquinolin-3-yl)carbamate], the pEC50 is above 6.30.
For `Cc1noc(C)c1NC(=O)N[C@@H]1Cc2ccc(/C=C/c3c(F)cccc3C(F)(F)F)cc2N(S(=O)(=O)c2cccc(C(F)(F)F)c2)[C@@H]1C` [Example 116L, 1-(3,5-dimethylisoxazol-4-yl)-3-((2R,3R)-7-((E)-2-fluoro-6-(trifluoromethyl)styryl)-2-methyl-1-((3-(trifluoro-methyl)phenyl)sulfonyl)-1,2,3,4-tetrahydroquinolin-3-yl)urea], the negative logarithm of the EC50 (pEC50) is above 6.30.
On the same count and under the same terms, the value for `COc1cc(S(=O)(=O)C2CC(CC(C)(C)C(=O)O)Oc3ccc(/C=C(\C)c4c(F)cccc4Cl)cc32)ccc1F` (stereo not drawn) [Example 186K, (E)-3-(6-(2-(2-chloro-6-fluorophenyl)prop-1-en-1-yl)-4-((4-fluoro-3-methoxyphenyl)-sulfonyl)chroman-2-yl)-2,2-dimethylpropanoic acid] was above 6.30.
As for `CCOC(=O)C(C)(C)CC1C[C@H](S(=O)(=O)c2cccc(C(F)(F)F)c2)c2cc(/C=C(\C)c3c(F)cccc3Cl)ccc2O1` (stereo in doubt) [Example 186L, ethyl 3-((2S,4S)-6-((E)-2-(2-chloro-6-fluorophenyl)prop-1-en-1-yl)-4-((3-(trifluoromethyl)phenyl)-sulfonyl)chroman-2-yl)-2,2-dimethylpropanoate], the negative-log EC50 (pEC50) was above 6.30.

Still in this test, the particulars now being: RORγ-LBD TR-FRET assay, maximum response.
`COC(=O)N[C@@H]1Cc2ccc(/C=C(\C)c3c(F)cccc3Cl)cc2N(S(=O)(=O)c2cccc(C(F)(F)F)c2)[C@@H]1C` [Example 143, Methyl ((2R,3R)-7-((E)-2-(2-chloro-6-fluorophenyl)prop-1-en-1-yl)-2-methyl-1-((3-(trifluoromethyl)phenyl)sulfonyl)-1,2,3,4-tetrahydroquinolin-3-yl)carbamate]: the “TR-FRET Assay Max Response” value was “** (a value in the range of greater than 90 to 150)”.
Turning to `Cc1noc(C)c1NC(=O)N[C@@H]1Cc2ccc(/C=C/c3c(F)cccc3C(F)(F)F)cc2N(S(=O)(=O)c2cccc(C(F)(F)F)c2)[C@@H]1C` [Example 116L, 1-(3,5-dimethylisoxazol-4-yl)-3-((2R,3R)-7-((E)-2-fluoro-6-(trifluoromethyl)styryl)-2-methyl-1-((3-(trifluoro-methyl)phenyl)sulfonyl)-1,2,3,4-tetrahydroquinolin-3-yl)urea], the “TR-FRET Assay Max Response” value is given as “*** (a value in the range of greater than 150 to 200)”.
With `COc1cc(S(=O)(=O)C2CC(CC(C)(C)C(=O)O)Oc3ccc(/C=C(\C)c4c(F)cccc4Cl)cc32)ccc1F` (stereo not drawn) [Example 186K, (E)-3-(6-(2-(2-chloro-6-fluorophenyl)prop-1-en-1-yl)-4-((4-fluoro-3-methoxyphenyl)-sulfonyl)chroman-2-yl)-2,2-dimethylpropanoic acid], the “TR-FRET Assay Max Response” value is “*** (a value in the range of greater than 150 to 200)”.
As to `CCOC(=O)C(C)(C)CC1C[C@H](S(=O)(=O)c2cccc(C(F)(F)F)c2)c2cc(/C=C(\C)c3c(F)cccc3Cl)ccc2O1` (stereo in doubt) [Example 186L, ethyl 3-((2S,4S)-6-((E)-2-(2-chloro-6-fluorophenyl)prop-1-en-1-yl)-4-((3-(trifluoromethyl)phenyl)-sulfonyl)chroman-2-yl)-2,2-dimethylpropanoate], the “TR-FRET Assay Max Response” value is listed as “*** (a value in the range of greater than 150 to 200)”.

Still in this test, the particulars now being: with 2 μM ursolic acid (RORγ antagonist); highest test concentration 10 μM.
The compound `O=C(O)C1Cc2ccc(OCc3ccc(C(F)(F)F)c(F)c3)cc2N(S(=O)(=O)c2cccc(C(F)(F)F)c2)C1` (stereo not drawn) gave a pEC50 of 5.00 to 5.30.
Compound `Cc1ccc(COc2ccc3c(c2)N(S(=O)(=O)c2cccc(C(F)(F)F)c2)CC(C(=O)O)C3)cc1F` (stereo not drawn) had a pEC50 below 5.00.
Same read-out and setting: the figure for `O=S(=O)(c1cccc(C(F)(F)F)c1)N1CC(CO)Cc2ccc(OCc3c(F)cccc3Cl)cc21` (stereo not drawn) is above 6.30; for `O=C(O)C1Cc2ccc(OCc3ccccc3F)cc2N(S(=O)(=O)c2cccc(C(F)(F)F)c2)C1` (stereo not drawn) it is above 6.30; for `O=C(O)C1Cc2ccc(OCc3c(Cl)cccc3Cl)cc2N(S(=O)(=O)c2cccc(C(F)(F)F)c2)C1` (stereo not drawn) it is above 6.30.
Turning to `CC(C)(C)c1ccc(COc2ccc3c(c2)N(S(=O)(=O)c2cccc(C(F)(F)F)c2)CC(C(=O)O)C3)cc1` (stereo not drawn), the pEC50 is below 5.00.
Same read-out and setting: the figure for `CCOC(=O)C1Cc2ccc(OCc3c(F)cccc3Cl)cc2N(S(=O)(=O)c2cn(CC)nc2Cl)C1` (stereo not drawn) [drawing 1599] is above 6.30; for `CCn1cc(S(=O)(=O)N2C[C@H](CNC(C)=O)Nc3ccc(NCc4c(F)cccc4Cl)cc32)c(Cl)n1` it is above 6.30; for `COC(=O)C[C@H]1CN(S(=O)(=O)c2cccc(C(F)(F)F)c2)c2cc(NCc3c(F)cccc3Cl)ccc2O1` it is above 6.30.
The compound `Cc1nn(C(F)F)cc1S(=O)(=O)N1CC(C(=O)O)Cc2ccc(OCc3c(F)cccc3Cl)cc21` (stereo not drawn) showed a pEC50 of 5.30 to 6.30.
`CCOc1nn(CC)cc1S(=O)(=O)N1CC(CO)Cc2ccc(OCc3c(F)cccc3Cl)cc21` (stereo not drawn): the pEC50 is above 6.30.
For the compound `C/C(=C\c1ccc2c(c1)N(S(=O)(=O)c1cc(C3CC3)cnc1OCCO)C[C@H](CCC(=O)O)O2)c1c(F)cccc1Cl` [Example 86BC, (S,E)-3-(6-(2-(2-chloro-6-fluorophenyl)prop-1-en-1-yl)-4-((5-cyclopropyl-2-(2-hydroxyethoxy)pyridin-3-yl)sulfonyl)-3,4-dihydro-2H-benzo[b][1,4]oxazin-2-yl)propanoic acid], the pEC50 was above 6.30.
